Measurements published in patent US12545677B2, “Compounds useful as factor XIa inhibitors” (JANSSEN PHARMACEUTICA NV, priority 2020, dated 2026).

Key:
[1] = target: Factor XIa (Homo sapiens, UniProt P03951); experiment: Factor XIa inhibition assay using fluorophore-quencher pair peptide substrate; type: biochemical
Description: Biological Example 1: Factor XIa Inhibition Assay
Using Fluorophore-quencher Pair Peptide Substrate
A fluorescence intensity-based assay was used to monitor inhibition of Factor XIa. The peptide substrate, 5Fam-[…]-K5Tamra (purchased from New England Peptide) was chosen based on the […]. Conversion of zymogen FIX to its activated form, FIXa, occurs by proteolytic cleavage by FXIa at two sites, Arg146 and Arg180. The custom peptide used in this assay was based on the Arg146 cleavage site. The peptide substrate was designed with a fluorophore-quencher pair, where the fluorescence is quenched until FXIa cleaves the 8-mer peptide after the Arg residue.
Factor XIa FLINT assay was used with the following 5Fam-[…]-K5Tamra assay buffer: 50 mM Tris, pH 7.5, 100 mM NaCl, 5 mM CaCl2, 0.1 mg/mL BSA, 0.03% CHAPS was used. Assay buffer was prepared by mixing all ingredients fresh. 2×5Fam-[…]-K5Tamra peptide substrate was first prepared in 100% DMSO, then diluted 10 mM to 3 mM in 100% DMSO. Assay buffer was then added directly to the 3 mM stock of substrate to prepare the 30 μM 2× working concentration (15 μM final concentration). The 2× Factor XIa stock solution was prepared by diluting 6.562 μM stock in 1× assay buffer for a 200 pM working stock solution (100 pM final concentration).
Test compound(s) were run in an 11-point, 3-fold serial dilution with a final top compound concentration of […]. Final DMSO in assay was 2% DMSO. FXIa and compound were pre-incubated for 30 minutes and substrate was then added to initiate the reaction. The assay was linear using 100 pM FXIa greater than 30 minutes. More specifically, the assay was run as follows: • 100 nL of 1 mM test compound was dispensed into a black 384-well non-binding Greiner BioOne 784900 plate for 10 μM final concentration with 1% DMSO final concentration; • 5 μL of 1× assay buffer was dispensed to column 24 (low control) and 5 μL 2× Factor XIa solution was dispensed to columns 1-23 (column 23 high control); • the plate was centrifuged with a “cover” plate at 500 rpm for 1 min • the plate was pre-incubated for 30 minutes at room temperature with plate covered; • 5 μL of 2× 5Fam-[…]-K5Tamra peptide substrate was dispensed into the entire plate, columns 1-24; • the plate was centrifuged with a cover plate at 500 rpm for 1 min; • the plate was read kinetically monitoring fluorescence intensity on the BMG PHERAStar at room temperature, using fluorescence module F1 485 mm/520 mm.
(§1) Percent inhibition (IC50) curves were generated per compound tested, and data was analyzed using a 4-parameter logistic fit using GeneData Screener. […]

[2] = target: human plasma kallikrein (Homo sapiens, UniProt P03952); experiment: Kallikrein inhibition assay utilizing quenched AMC peptide substrate; type: biochemical; conditions: read-out: Plasma kallikrein (PK) IC50
Chain of human plasma kallikrein (P03952 391-638 limits assumed): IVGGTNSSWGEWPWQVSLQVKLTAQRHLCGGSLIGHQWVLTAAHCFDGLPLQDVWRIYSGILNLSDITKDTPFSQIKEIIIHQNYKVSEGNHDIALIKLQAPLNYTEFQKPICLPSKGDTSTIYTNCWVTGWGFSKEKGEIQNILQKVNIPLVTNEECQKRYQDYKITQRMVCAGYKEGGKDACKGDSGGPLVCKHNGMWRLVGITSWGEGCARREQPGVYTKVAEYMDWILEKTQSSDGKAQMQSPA
Chain of human plasma kallikrein (P03952 20-390 partner limits assumed): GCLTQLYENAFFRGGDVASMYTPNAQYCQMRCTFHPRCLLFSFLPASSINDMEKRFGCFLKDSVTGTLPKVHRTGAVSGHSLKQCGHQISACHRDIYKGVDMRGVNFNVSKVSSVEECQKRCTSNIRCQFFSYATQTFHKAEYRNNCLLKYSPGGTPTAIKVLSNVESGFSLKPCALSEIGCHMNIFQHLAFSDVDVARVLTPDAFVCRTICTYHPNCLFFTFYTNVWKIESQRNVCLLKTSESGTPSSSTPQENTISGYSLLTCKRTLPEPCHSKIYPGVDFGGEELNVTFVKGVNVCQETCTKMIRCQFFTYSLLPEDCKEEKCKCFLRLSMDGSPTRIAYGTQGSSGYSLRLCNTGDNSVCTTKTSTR
Protocol: Biological Example 2: Kallikrein Inhibition Assay
Utilizing Quenched AMC Peptide Substrate
A fluorescence intensity-based assay was used to monitor inhibition of human plasma kallikrein. The peptide substrate, Z-Gly-Pro-Arg-AMC (Purchased from Bachem; Catalog #1-1150) was chosen based on its relatively low KM for kallikrein which enables running the assay at lower substrate concentrations to control background fluorescence. The kinetic parameters for this substrate were determined by fitting titration data to the Michaelis-Menten equation yielding a KM=40 μM, kcat=0.76 s^−1, and kcat/KM=18932 M^−1s^−1.
Kallikrein FLINT assay was used with the following Z-Gly-Pro-Arg-AMC assay buffer: 50 mM Tris, pH 7.5, 100 mM NaCl, 5 mM CaCl2, 0.1 mg/mL BSA, 0.03% CHAPS. Assay buffer was prepared by mixing all ingredients fresh. 2× Z-Gly-Pro-Arg-AMC peptide substrate was prepared by diluting 10 mM stock into 1× assay buffer for a 100 μM working concentration (50 μM final concentration). The 2× kallikrein stock solution was prepared by diluting 14.76 μM stock in 1× assay buffer for a 4 nM working stock solution (2 nM final concentration).
Test compound(s) were run in an 11-point, 3-fold serial dilution with a final top compound concentration of 1 μM. Final DMSO in assay: 2% DMSO. 2 nM kallikrein and test compound were pre-incubated for 30 minutes and 50 μM substrate was then added to initiate the reaction. The assay was linear using 2 nM kallikrein greater than 30 minutes. More specifically, the assay was run as follows: • 100 nL of 1 mM test compound was dispensed into a black 384-well non-binding Greiner BioOne 784900 plate for 10 μM final concentration with 1% DMSO final concentration; • 5 μL of 1× assay buffer was dispensed to columns 24 (low control) and 5 μL 2× human kallikrein enzyme solution was dispensed to columns 1-23 (column 23 high control); • the plate was centrifuged with a cover plate at 500 rpm for 1 min • the plate was pre-incubated for 30 minutes at room temperature with plate covered; • 5 μL of 2× Z-Gly-Pro-Arg-AMC peptide substrate was dispensed into the entire plate, columns 1-24; • the plate was centrifuged with a “cover” plate at 500 rpm for 1 min; • the plate was read kinetically monitoring fluorescence intensity on the BMG PHERAStar at room temperature, using fluorescence module F1 340 mm/440 mm.
as §1

[3] = system: human hepatocytes; experiment: In vitro metabolism in human cryopreserved hepatocytes; type: in vitro ADME; conditions: positive control, 10 μM, 1×10^6 cells/mL, 3 hours
Protocol: In Vitro Metabolism of in Human Cryopreserved Hepatocytes
The human hepatocytes used for in vitro metabolism of the compound of formula (I-A) were purchased from Bioreclamation IVT (Westbury, NY); cryopreserved human hepatocytes (lot number: UYG).
Cryopreserved hepatocytes were rapidly thawed […] vials were placed in a 37° C. water bath for approximately 90 sec, then immediately added to pre-warmed hepatocyte thawing media. The cells were resuspended within the media and then centrifuged at 700×g for 7 minutes at room temperature.
The supernatant was discarded, and the cells were resuspended in 2 mL of Krebs-Henseleit buffer containing 12.5 mM HEPES pH 7.4 (KHB). Cell viability and yield were determined by Trypan Blue exclusion. The hepatocytes were then diluted in KHB to a cell concentration of 2×10^6 cells/mL (500 μL/well in 10 mL glass tubes). The tubes were placed on a rotary shaker in a humidifier incubator supplied with 5% CO2 and allowed 15 minutes acclimation at 37° C. prior to use. The compound of formula (I-A) or positive control, diclofenac (10 μM), in KHB was then added to the hepatocytes to achieve a final concentration of 10 μM and cell concentration of 1×10^6 cells/mL (1000 μL final incubation volume). Cells were incubated for zero or 3 hours. At the end of the incubation period, the cells were quenched with 6-volumes of ice-cold acetonitrile containing 0.02% formic acid, vortexed and sonicated (5 min). Precipitated proteins were pelleted by centrifugation (3000 rpm, 10 minutes, 4° C.) and the supernatant was transferred to borosilicate tubes and evaporated to dryness under a gentle stream of nitrogen.
The resulting residue after evaporation was reconstituted in 250 μL of water:acetonitrile (9:1 v/v) containing 0.01% formic acid with sonication and vortexing to aid solubilization of drug-derived materials prior to filtration using 0.45μ nylon filter at 10,000×g at room temperature for 10 minutes. The filtrate was transferred to a 96-well plate for liquid chromatography/ultraviolet/mass spectrometry (LC-UV/MS) analysis.
LC/UV/MS (Liquid Chromatography/Ultraviolet/Mass Spectrometry)
LTQ/Orbitrap (Thermo Scientific, Inc., Bremen, Germany) was carried out by data-dependent accurate mass measurements at resolving powers of 15,000 for full scan MS and 7,500 for MS^2 (also known as MS/MS or tandem mass spec) under single ion locked mass mode.
Quantification of the unchanged drug and its metabolites was carried out by integration of the individual chromatographically separated UV peaks and provided the percentage of total peak area.

Chain of Factor XIa (P03951 388-625 limits assumed): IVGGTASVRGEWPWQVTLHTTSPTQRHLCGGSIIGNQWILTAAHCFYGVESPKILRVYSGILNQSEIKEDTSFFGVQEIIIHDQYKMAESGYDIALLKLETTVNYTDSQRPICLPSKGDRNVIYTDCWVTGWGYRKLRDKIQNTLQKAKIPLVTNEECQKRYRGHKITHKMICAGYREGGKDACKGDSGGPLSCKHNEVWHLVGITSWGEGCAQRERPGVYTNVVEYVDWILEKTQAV
Chain of Factor XIa (P03951 19-387 partner limits assumed): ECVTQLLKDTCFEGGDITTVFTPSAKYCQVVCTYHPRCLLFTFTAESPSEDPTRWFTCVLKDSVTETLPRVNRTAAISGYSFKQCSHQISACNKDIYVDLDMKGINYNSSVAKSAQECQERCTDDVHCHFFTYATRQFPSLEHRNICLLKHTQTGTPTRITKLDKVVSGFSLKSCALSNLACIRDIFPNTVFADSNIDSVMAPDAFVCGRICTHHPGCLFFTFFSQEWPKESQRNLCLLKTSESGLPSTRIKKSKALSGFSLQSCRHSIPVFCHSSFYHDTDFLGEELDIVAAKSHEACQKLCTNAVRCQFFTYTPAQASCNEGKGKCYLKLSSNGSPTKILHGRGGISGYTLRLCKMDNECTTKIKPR

| SMILES | IC50 [1] | IC50 [2] | turnover from human hepatocytes [3] |
| --- | --- | --- | --- |
| [2H]C([2H])(O)c1nccc(-c2cnc([C@@H]3CCC4([2H])CC(c5c(-n6cnnn6)ccc(Cl)c5F)=CC(=O)N34)[nH]2)c1F (single isomer, unassigned) [Compound of formula (I-F), (3S,8aR*)-7-(3-Chloro-2-fluoro-6-(1H-tetrazol-1-yl)phenyl)-3-(5-(3-fluoro-2-(hydroxymethyl-d2)pyridin-4-yl)-1H-imidazol-2-yl)-2,3,8,8a-tetrahydroindolizin-5(1H)-one-8a-d] | 5.1 nM | 34 nM | – |
| [2H]C1([2H])C[C@@H](c2ncc(-c3ccnc(CO)c3F)[nH]2)N2C(=O)C=C(c3c(-n4cnnn4)ccc(Cl)c3F)C([2H])([2H])[C@]21[2H] (single isomer, unassigned) [Compound of formula (I-G)] | 3.9 nM | – | – |
| [2H]c1nnnn1-c1ccc(Cl)c(F)c1C1=CC(=O)N2[C@@H](CC[C@@H]2c2ncc(-c3ccnc(C([2H])([2H])O)c3F)[nH]2)C1 (stereo in doubt) [Compound of formula (I-J), (3R,8aS)-7-(3-Chloro-2-fluoro-6-(1H-tetrazol-1-yl-d)phenyl)-3-(4-(3-fluoro-2-(hydroxymethyl-d2)pyridin-4-yl)-1H-imidazol-2-yl)-2,3,8,8a-tetrahydroindolizin-5(1H)-one] | 4.1 nM | 32 nM | – |

More lines, now with the values ahead:

| IC50 [1] | IC50 [2] | turnover from human hepatocytes [3] | SMILES |
| --- | --- | --- | --- |
| – | 9.7 nM | – | [2H]C1([2H])C(c2c(-n3cnnn3)ccc(Cl)c2F)=CC(=O)N2[C@H](c3ncc(-c4ccnc(CO)c4F)[nH]3)CC[C@@]21[2H] (single isomer, unassigned) [Compound of formula (I-K)] |
| – | – | 89% | O=C(O)Cc1ccccc1Nc1c(Cl)cccc1Cl [diclofenac, reference compound] |
